Measured values: patent US20250327793A1, “METHODS OF IDENTIFYING COMPOUNDS THAT MODULATE LAUNDRY MALODOR, MOLDY MALODOR, OR SWEAT MALODOR” (Firmenich SA, priority 2017, published 2025)

Columns and labels:
Olfr1364 = assay: Cell-based OR activation assay (cAMP accumulation); design: species or system mouse; conditions: FIG. 6; OR-dependent accumulation of cAMP
Olfr398 = assay: Cell-based OR activation assay (cAMP accumulation); design: species or system mouse; conditions: FIG. 6; OR-dependent accumulation of cAMP
Olfr120 = assay: Cell-based OR activation assay (cAMP accumulation); design: species or system mouse; conditions: FIG. 6; OR-dependent accumulation of cAMP
Olfr93 = assay: Cell-based OR activation assay (cAMP accumulation); design: species or system mouse; conditions: FIG. 6; OR-dependent accumulation of cAMP
Olfr1126 [1] = assay: Cell-based OR activation assay (cAMP accumulation); design: species or system mouse; conditions: FIG. 9; OR-dependent accumulation of cAMP
Text: (§1) The detection method pertains to OR-dependent accumulation of cAMP in said cells, as a result of OR activation by 3-hydroxy-3-methyl-hexanoic acid.
(§2) In a further embodiment, to complete the deorphanization process, the candidate OR genes are further expressed in vitro for confirmation of activity against the compounds used to isolate the olfactory sensory neurons and other structurally-related compounds of interest. The mouse receptors identified from isolated olfactory neurons that respond to geonol, DMTS, 1-octen-3-ol, butyric acid, 3-methyl-2-hexenoic acid, 3-hydroxy-3-methyl-hexanoic acid or transpirol are modified at their N-terminus with short polypeptide sequences (e.g., FLAG® (SEQ ID NO: 48), Rho (SEQ ID NO: 50; 20 first amino acids of the bovine rhodopsin receptor), and/or Lucy (SEQ ID NO: 52; cleavable leucine-rich signal peptide sequence) tags), transiently expressed in HEK 293T cells, and stimulated separately with geonol, DMTS, 1-octen-3-ol, butyric acid, 3-methyl-2-hexenoic acid, 3-hydroxy-3-methyl-hexanoic acid or transpirol to confirm their identity as bona fide geonol, dimethyl trisulfide (DMTS), 1-octen-3-ol, butyric acid, 3-methyl-2-hexenoic acid, 3-hydroxy-3-methyl-hexanoic acid or transpirol receptors. In a further embodiment, an RTP1 gene can also be expressed in the cell lines whether through activation of the endogenous RTP1 gene or through transformation. […]

Olfr1126 [2] = target: Olfr1126 (Mus musculus, UniProt Q7TR49); assay: 3-hydroxy-3-methyl-hexanoic acid concentration-dependent activation of Olfr1126: OR-dependent cAMP accumulation in a cell-based assay (functional dose-response); conditions: agonist, mouse Olfr1126 (SEQ ID NO: 46), N-terminal FLAG/Rho/Lucy tags, HEK 293T cells, Gαolf, FIG. 9
Text: as §1
(§3) In a further embodiment, to complete the deorphanization process, the candidate OR genes are further expressed in vitro for confirmation of activity against the compounds used to isolate the olfactory sensory neurons and other structurally-related compounds of interest. […]
(§4) Neurons that were activated by DMTS were further isolated for full transcriptome analysis to identify the responsive odorant receptor. […] Amplified cDNA was then used to generate an Illumina cDNA library for Next-Generation-Sequencing and the generation of 100 base pair single read sequences. […]

Olfr263 [3] = target: Olfr263 (Mus musculus, UniProt Q7TQT8); assay: Concentration-dependent activation of Olfr263: OR-dependent cAMP accumulation in a cell-based assay (functional dose-response); conditions: agonist 3-methyl-2-hexenoic acid, mouse Olfr263 (SEQ ID NO: 22), N-terminal FLAG/Rho/Lucy tags, HEK 293T cells, Gαolf, FIG. 8
Text: (§5) The detection method pertains to OR-dependent accumulation of cAMP in said cells, as a result of OR activation by transpirol.
(§6) The detection method pertains to OR-dependent accumulation of cAMP in said cells, as a result of OR activation by 3-methyl-2-hexenoic acid.
as §3, §4

OR2W1 [4] = target: T1, OR2W1 (Homo sapiens, UniProt Q9Y3N9, M81V); assay: Cell-based OR activation assay (cAMP accumulation); design: expressed in transfected cells; host or cells: HEK293T expressing human Golf; conditions: FIG. 7 and 8; OR-dependent accumulation of cAMP
T1 sequence (Q9Y3N9 1-320 M81V): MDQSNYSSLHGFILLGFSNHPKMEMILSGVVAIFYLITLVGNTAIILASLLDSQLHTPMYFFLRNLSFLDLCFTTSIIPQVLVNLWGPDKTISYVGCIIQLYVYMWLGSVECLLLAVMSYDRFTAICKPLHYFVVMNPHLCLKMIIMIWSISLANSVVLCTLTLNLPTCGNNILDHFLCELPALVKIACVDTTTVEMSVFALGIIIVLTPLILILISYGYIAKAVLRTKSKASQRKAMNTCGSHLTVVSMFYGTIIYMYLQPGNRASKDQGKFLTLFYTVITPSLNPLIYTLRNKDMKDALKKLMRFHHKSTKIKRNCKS
Text: as §5, §6, §3
(§7) In the second method, a panel of odorant receptors comprising the 400 putatively functional human receptor repertoire were transfected into a cultured human HEK293T cell line described in WO2014/210585 expressing Human olfactory G-protein alpha subunit (Golf—SEQ. ID No. 49) and coupled to a cyclicAMP reporter. Said panel of in vitro odorant receptors were exposed to MCSs and the level of cAMP signal was measured for each receptor. […]

Olfr641 [5] = assay: Cell-based OR activation assay (cAMP accumulation); design: species or system mouse; conditions: FIG. 8; OR-dependent accumulation of cAMP
Text: as §6, §2

OR51I2 = target: T2, OR51I2 (Homo sapiens, UniProt Q9H344); assay: 3-methyl-2-hexenoic acid concentration-dependent activation of OR51I2: OR-dependent cAMP accumulation in a cell-based assay (functional dose-response); conditions: agonist, human OR51I2 (SEQ ID NO: 20), HEK293T cells expressing Golf, FIG. 8
T2 construct: expressed in transfected cells; host or cells: HEK293T
Text: as §6, §3, §7

OR5112 = target: T3, OR5112 (Homo sapiens, UniProt Q9H344); assay: Cell-based OR activation assay (cAMP accumulation); conditions: FIG. 8; OR-dependent accumulation of cAMP
T3 construct: expressed in transfected cells; host or cells: HEK293T expressing human Golf
Text: as §6, §3, §7

Olfr263 [6] = assay: Cell-based OR activation assay (cAMP accumulation); design: species or system mouse; conditions: FIG. 7 and 8; OR-dependent accumulation of cAMP
Text: as §5, §6
as §2, with “receptors.” for “receptors. In a further embodiment, an RTP1 gene can also be expressed in the cell lines whether through activation of the endogenous RTP1 gene or through transformation.”

Olfr641 [7] = target: Olfr641 (Mus musculus, UniProt Q8VGX6); assay: 3-methyl-2-hexenoic acid concentration-dependent activation of Olfr641: OR-dependent cAMP accumulation in a cell-based assay (functional dose-response); conditions: agonist, mouse Olfr641 (SEQ ID NO: 34), N-terminal FLAG/Rho/Lucy tags, HEK 293T cells, Gαolf, FIG. 8
Text: as §6, §3, §4

OR2W1 [8] = target: T1, OR2W1; assay: Concentration-dependent activation of OR2W1: OR-dependent cAMP accumulation in a cell-based assay (functional dose-response); design: expressed in transfected cells; host or cells: HEK293T; conditions: agonist 3-methyl-2-hexenoic acid, human OR2W1 (SEQ ID NO: 2), HEK293T cells expressing Golf, FIG. 8
Text: as §5, §6, §3, §7

Olfr1487 [9] = target: Olfr1487 (Mus musculus, UniProt Q8VFQ6); assay: Geonol concentration-dependent activation of Olfr1487: OR-dependent cAMP accumulation in a cell-based assay (functional dose-response); conditions: agonist, mouse Olfr1487 (SEQ ID NO: 42), N-terminal FLAG/Rho/Lucy tags, HEK 293T cells, Gαolf, FIG. 5
Text: (§8) The detection method pertains to OR-dependent accumulation of cAMP in said cells, as a result of OR activation by geonol.
as §3, §4

OR11A1 [10] = target: T4, OR11A1 (Homo sapiens, UniProt Q9GZK7); assay: Geonol concentration-dependent activation of OR11A1: OR-dependent cAMP accumulation in a cell-based assay (functional dose-response); design: expressed in transfected cells; host or cells: HEK293T; conditions: agonist, human OR11A1 (SEQ ID NO: 12), HEK293T cells expressing Golf, FIG. 5
Text: as §8, §3, §7

Olfr96 [11] = target: Olfr96 (Mus musculus, UniProt Q0VBG2); assay: Geonol concentration-dependent activation of Olfr96: OR-dependent cAMP accumulation in a cell-based assay (functional dose-response); conditions: agonist, mouse Olfr96 (SEQ ID NO: 28), N-terminal FLAG/Rho/Lucy tags, HEK 293T cells, Gαolf, FIG. 5
Text: as §8, §3, §4

Olfr1322 [12] = target: Olfr1322 (Mus musculus, UniProt Q7TQW3); assay: Geonol concentration-dependent activation of Olfr1322: OR-dependent cAMP accumulation in a cell-based assay (functional dose-response); conditions: agonist, mouse Olfr1322 (SEQ ID NO: 73), N-terminal FLAG/Rho/Lucy tags, HEK 293T cells, Gαolf, FIG. 5
Text: as §8, §3, §4

Olfr339 [13] = target: Olfr339 (Mus musculus, UniProt Q8VGK8); assay: Geonol concentration-dependent activation of Olfr339: OR-dependent cAMP accumulation in a cell-based assay (functional dose-response); conditions: agonist, mouse Olfr339 (SEQ ID NO: 44), N-terminal FLAG/Rho/Lucy tags, HEK 293T cells, Gαolf, FIG. 5
Text: as §8, §3, §4

Olfr339 [14] = assay: Cell-based OR activation assay (cAMP accumulation); design: species or system mouse; conditions: FIG. 5; OR-dependent accumulation of cAMP
Olfr1322 [15] = assay: Cell-based OR activation assay (cAMP accumulation); design: species or system mouse; conditions: FIG. 5; OR-dependent accumulation of cAMP
OR11A1 [16] = target: T4, OR11A1; assay: Cell-based OR activation assay (cAMP accumulation); design: expressed in transfected cells; host or cells: HEK293T expressing human Golf; conditions: FIG. 5; OR-dependent accumulation of cAMP
Olfr1487 [17] = assay: Cell-based OR activation assay (cAMP accumulation); design: species or system mouse; conditions: FIG. 5; OR-dependent accumulation of cAMP
Olfr96 [18] = assay: Cell-based OR activation assay (cAMP accumulation); design: species or system mouse; conditions: FIG. 5; OR-dependent accumulation of cAMP
Olfr46 = assay: Cell-based OR activation assay (cAMP accumulation); design: species or system mouse; conditions: FIG. 7; OR-dependent accumulation of cAMP
Text: as §5, §2

human sensory panel = assay: Sensory evaluation of geonol earthy/moss odor in binary mixtures with antagonists; type: in vivo; conditions: percentage of geonol malodor (earthy/moss odor) remaining in binary iso-intense mixture vs REF; * = statistically different from geonol alone
Text: Sensory Evaluation: Five 16 oz glass jars containing either REF (geonol only), geonol only control, antagonist only, mixture of geonol and isointense antagonist, or mixture of geonol and low intensity antagonist were presented to the panelists (last four samples were randomized across panelists). The panelists were asked to familiarize themselves with the earthy/moss odor quality from the REF jar first, then rate the pleasantness, earthy/moss odor intensity and overall odor intensity of the next four samples on a 0-10 linear scale. The inter-stimulus interval between the samples was two minutes to avoid adaptation.

[19] = test system: T5, OR11A1 or OR2M3 olfactory receptor; assay: Geonol olfactory receptor antagonist cell-based inhibitory dose-response assay; design: species or system human; conditions: Table 2; geonol induced receptor activity, geonol at EC50
T5 construct: fused on or other part: Possibly N-terminal FLAG, Rho and/or Lucy tags

[20] = test system: OR2W1 or OR1A1 olfactory receptor; assay: 1-octen-3-ol olfactory receptor antagonist cell-based inhibitory dose-response assay; conditions: Table 3
Text: Each cell line was screened with a volatile compound library for their inhibitory properties and potential 1-octen-3-ol smell inhibition.
Single concentration monitoring of the 1-octen-3-ol induced cell activity in the presence or absence of a test compound allowed for the identification of compounds with a putative suppression or inhibitory effect.

T4 sequence (Q9GZK7 whole entry): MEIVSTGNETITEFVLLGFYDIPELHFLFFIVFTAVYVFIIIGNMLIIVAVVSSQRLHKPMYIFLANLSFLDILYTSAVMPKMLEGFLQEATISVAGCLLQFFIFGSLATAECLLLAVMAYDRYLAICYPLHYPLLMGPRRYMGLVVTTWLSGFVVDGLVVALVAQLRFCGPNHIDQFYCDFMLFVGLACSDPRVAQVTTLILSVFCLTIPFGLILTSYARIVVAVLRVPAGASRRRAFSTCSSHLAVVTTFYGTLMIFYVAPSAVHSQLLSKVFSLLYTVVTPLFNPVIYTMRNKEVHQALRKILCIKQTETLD
T2 sequence (Q9H344 whole entry): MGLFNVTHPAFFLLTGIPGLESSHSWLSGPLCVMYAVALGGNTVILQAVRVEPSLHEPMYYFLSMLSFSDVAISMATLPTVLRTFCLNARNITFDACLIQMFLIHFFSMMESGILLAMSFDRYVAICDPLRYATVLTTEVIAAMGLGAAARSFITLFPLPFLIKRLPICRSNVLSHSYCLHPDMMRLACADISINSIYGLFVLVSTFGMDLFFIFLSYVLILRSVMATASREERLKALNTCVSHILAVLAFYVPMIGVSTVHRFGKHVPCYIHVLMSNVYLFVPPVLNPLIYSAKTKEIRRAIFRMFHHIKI
T3 sequence (Q9H344 whole entry): as above
Chain of Olfr1126 (Mus musculus, UniProt Q7TR49) (Q7TR49 1-314): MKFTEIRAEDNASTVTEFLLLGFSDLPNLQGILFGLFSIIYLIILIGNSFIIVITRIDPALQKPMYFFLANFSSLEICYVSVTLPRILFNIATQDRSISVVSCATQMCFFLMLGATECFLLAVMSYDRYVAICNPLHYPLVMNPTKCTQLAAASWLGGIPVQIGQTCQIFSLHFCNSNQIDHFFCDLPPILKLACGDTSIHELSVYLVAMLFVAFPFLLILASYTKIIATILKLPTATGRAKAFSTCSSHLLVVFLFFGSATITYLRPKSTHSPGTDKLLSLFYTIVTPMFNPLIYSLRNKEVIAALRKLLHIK
Chain of Olfr1322 (Mus musculus, UniProt Q7TQW3) (Q7TQW3 1-310): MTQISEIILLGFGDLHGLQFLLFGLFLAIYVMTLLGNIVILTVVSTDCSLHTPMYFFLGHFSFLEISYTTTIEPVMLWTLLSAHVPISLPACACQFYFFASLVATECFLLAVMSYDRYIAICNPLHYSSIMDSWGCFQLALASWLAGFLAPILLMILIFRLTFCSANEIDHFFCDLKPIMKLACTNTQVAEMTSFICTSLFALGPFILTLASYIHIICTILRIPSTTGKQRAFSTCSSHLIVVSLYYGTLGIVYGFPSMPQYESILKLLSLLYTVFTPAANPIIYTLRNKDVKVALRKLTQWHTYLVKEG
Chain of Olfr1487 (Mus musculus, UniProt Q8VFQ6) (Q8VFQ6 1-315): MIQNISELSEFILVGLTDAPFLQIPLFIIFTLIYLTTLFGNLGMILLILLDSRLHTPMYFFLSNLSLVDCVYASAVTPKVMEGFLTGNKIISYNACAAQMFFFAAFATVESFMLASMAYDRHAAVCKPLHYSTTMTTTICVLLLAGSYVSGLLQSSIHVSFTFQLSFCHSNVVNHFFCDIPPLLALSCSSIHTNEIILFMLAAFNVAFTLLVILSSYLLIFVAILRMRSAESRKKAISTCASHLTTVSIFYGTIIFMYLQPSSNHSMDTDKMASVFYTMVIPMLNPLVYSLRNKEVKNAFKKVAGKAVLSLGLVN
Chain of Olfr96 (Mus musculus, UniProt Q0VBG2) (Q0VBG2 1-313): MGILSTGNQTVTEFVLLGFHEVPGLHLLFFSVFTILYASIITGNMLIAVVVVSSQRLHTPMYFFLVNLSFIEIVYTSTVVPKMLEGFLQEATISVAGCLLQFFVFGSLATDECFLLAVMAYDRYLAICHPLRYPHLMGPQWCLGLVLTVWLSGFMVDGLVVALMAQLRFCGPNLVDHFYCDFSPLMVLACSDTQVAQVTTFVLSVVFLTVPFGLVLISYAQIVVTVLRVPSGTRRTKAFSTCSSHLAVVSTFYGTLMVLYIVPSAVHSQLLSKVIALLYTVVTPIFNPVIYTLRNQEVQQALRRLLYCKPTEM
Chain of Olfr339 (Mus musculus, UniProt Q8VGK8) (Q8VGK8 1-309): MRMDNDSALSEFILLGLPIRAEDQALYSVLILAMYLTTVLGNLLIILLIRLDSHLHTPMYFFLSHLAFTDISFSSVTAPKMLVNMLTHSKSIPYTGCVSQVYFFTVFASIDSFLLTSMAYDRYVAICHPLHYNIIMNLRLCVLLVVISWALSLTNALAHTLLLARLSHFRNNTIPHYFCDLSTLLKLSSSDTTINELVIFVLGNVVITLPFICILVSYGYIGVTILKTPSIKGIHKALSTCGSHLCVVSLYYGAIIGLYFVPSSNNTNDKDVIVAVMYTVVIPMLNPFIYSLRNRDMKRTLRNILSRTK
Chain of Olfr641 (Mus musculus, UniProt Q8VGX6) (Q8VGX6 1-312): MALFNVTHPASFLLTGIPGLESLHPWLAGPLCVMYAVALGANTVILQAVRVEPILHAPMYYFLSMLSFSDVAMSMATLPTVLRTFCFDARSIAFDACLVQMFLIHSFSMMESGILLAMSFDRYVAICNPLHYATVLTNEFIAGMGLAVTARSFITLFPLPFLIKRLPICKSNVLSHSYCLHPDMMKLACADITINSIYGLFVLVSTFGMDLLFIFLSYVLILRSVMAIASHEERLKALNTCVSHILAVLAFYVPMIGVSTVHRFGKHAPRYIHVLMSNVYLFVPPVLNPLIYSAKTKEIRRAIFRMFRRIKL
Chain of Olfr263 (Mus musculus, UniProt Q7TQT8) (Q7TQT8 1-317): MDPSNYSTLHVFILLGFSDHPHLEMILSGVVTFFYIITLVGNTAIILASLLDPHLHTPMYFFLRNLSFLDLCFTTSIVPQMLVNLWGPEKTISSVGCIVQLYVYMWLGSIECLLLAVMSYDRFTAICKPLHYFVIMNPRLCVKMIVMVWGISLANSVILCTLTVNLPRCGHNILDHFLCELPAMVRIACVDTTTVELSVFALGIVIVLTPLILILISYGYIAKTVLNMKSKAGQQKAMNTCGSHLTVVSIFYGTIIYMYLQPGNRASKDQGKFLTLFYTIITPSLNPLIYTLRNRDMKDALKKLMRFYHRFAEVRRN

With `C=CC(O)CCCCC` (stereo not shown) [1-octen-3-ol] the “activation of Olfr1364” value (Olfr1364) was “concentration-dependent and specific activation”, the “activation of Olfr398” value (Olfr398) was “concentration-dependent and specific activation” and the “activation of Olfr120” value (Olfr120) was “concentration-dependent and specific activation”. For the same molecule, the “activation of Olfr93” value (Olfr93) was “concentration-dependent and specific activation”.

In the case of `CCCC(C)(O)CC(=O)O` (stereo not shown) [3-hydroxy-3-methyl-hexanoic acid], the “activation of Olfr1126” value (Olfr1126 [1]) is reported as “concentration-dependent and specific activation” and the EC50 (Olfr1126 [2]) is reported as 40.3 µM.

With `CCCC(C)=CC(=O)O` [3-methyl-2-hexenoic acid] the EC50 (Olfr263 [3]) was 183 µM, the “activation of OR2W1” value (OR2W1 [4]) was “concentration-dependent and specific activation” and the “activation of Olfr641” value (Olfr641 [5]) was “concentration-dependent and specific activation”. For the same molecule, the EC50 (OR51I2) was 13.9 µM, the “activation of OR5112” value (OR5112) was “concentration-dependent and specific activation” and the “activation of Olfr263” value (Olfr263 [6]) was “concentration-dependent and specific activation”. It also gave an EC50 (Olfr641 [7]) of 1.75 µM and an EC50 (OR2W1 [8]) of 214 µM.

`CC1CCCC2(C)CCCCC12O` [Geonol, (4S,4aS,8aR)-4,8a-Dimethyl-1,2,3,4,5,6,7,-octahydronaphthalen-4a-ol] was tested, and the EC50 (Olfr1487 [9]) was 3.58 µM, the EC50 (OR11A1 [10]) was 2.8 µM and the EC50 (Olfr96 [11]) was 0.0168 µM. It also gave an EC50 (Olfr1322 [12]) of 37.5 µM and an EC50 (Olfr339 [13]) of 1.28 µM.

With `CC1CCCC2(C)CCCCC12O` [geonol, (4S,4aS,8aR)-4,8a-Dimethyl-1,2,3,4,5,6,7,-octahydronaphthalen-4a-ol] the “activation of Olfr339” value (Olfr339 [14]) was “concentration-dependent and specific activation”, the “activation of Olfr1322” value (Olfr1322 [15]) was “concentration-dependent and specific activation” and the “activation of OR11A1” value (OR11A1 [16]) was “concentration-dependent and specific activation”. For the same molecule, the “activation of Olfr1487” value (Olfr1487 [17]) was “concentration-dependent and specific activation” and the “activation of Olfr96” value (Olfr96 [18]) was “concentration-dependent and specific activation”.

`CCCC(C)(S)CCO` (stereo not shown) [transpirol, 3-methyl-3-sulfanylhexanol] was tested, and the “activation of Olfr46” value (Olfr46) was “concentration-dependent and specific activation”, the “activation of OR2W1” value (OR2W1 [4]) was “concentration-dependent and specific activation” and the “activation of Olfr263” value (Olfr263 [6]) was “concentration-dependent and specific activation”.

With isobutylquinoline the “% Remaining in human sensory tests” value (human sensory panel) was 52* %, the “% Inhibition” value [19] was 45% and the IC50 ([20]; 1-octen-3-ol at single activating concentration (EC50), receptor (OR2W1 or OR1A1) not stated per compound) was over 600 µM. The “% Inhibition” value ([20]; normalized to baseline agonist activity, 1-octen-3-ol at EC50) was 30.14%.
